This is an account of results in patent publication US20250319063A1, “METHODS AND COMPOUNDS FOR RESTORING MUTANT P53 FUNCTION” (PMV PHARMACEUTICALS, INC., priority 2022, published 2025).

Series [1] can be described thus: Urine pharmacokinetics in healthy subjects (Ae, CLR, fe). It counts as in vivo, human. The settings on record: for CL renal: both sexes, human, urine, oral, read-out: renal clearance (CLR), geometric mean (converted). How it is done:
Urine for the analysis of study drug was also collected. Participants were asked to void at the end of each collection period to ensure complete collection of urine during each interval. The entire volume of urine voided during each interval was collected and recorded, and a small volume stored for analysis of study drug concentrations.
Various pharmacokinetic (PK) parameters were determined for each subject. (FIGS. 29-31). For example, amount of drug excreted unchanges in urine (Ae), renal clearance (CLR), and fraction excreted in urine (fe).

Series [2] deals with Prostate-Specific Antigen. The experiment in a line: Prostate-Specific Antigen (PSA) assessment in CRPC patients. The series is classed as in vivo, human. As to conditions: metastatic castration-resistant prostate cancer patient, 2,000 mg QD (Example 10). How it is done:
Patient cohorts 1 through 3 were administered with 150 mg QD to 600 mg QD of Compound 1. Patient cohorts 4 through 7 were administered with 1150 mg QD to 1500 mg BID of Compound 1. The same methods of assessment (e.g., CT, MRI, bone scan) and the same technique were used at baseline and throughout the study to ensure comparability. Scans were performed immediately following bolus contrast administration using a standard volume of contrast, an identical contrast agent, and preferably the same scanner. Where appropriate (i.e., part of standard of care and clinically indicated), fluorodeoxyglucose-positron emission tomography (FDG PET) data were also obtained. In addition, patients with Castration-resistant prostate cancer (CRPC) had Prostate-Specific Antigen (PSA) assessments within 7 days of imaging assessments.

Series [3] can be described thus: Pharmacokinetic analysis of patient plasma (LC/MS/MS, noncompartmental analysis). It counts as in vivo. As to conditions: for half-life: human, plasma. From the text:
Serial blood samples for PK assessments were collected from all patients, including adolescents. Serial blood samples from all patients were also collected for PDc assessment of response to Compound 1. Pre- and on-treatment tumor biopsies for PDc assessment were optional. The relationship between plasma Compound 1 concentrations and pharmacodynamic biomarkers of response were explored. When the MTD was established, this cohort was expanded up to 12 patients. At least one additional cohort at a total daily dose below the MTD and considered to be active were expanded up to 12 patients. These expanded cohorts provided additional information about the relationship between dose, safety/tolerability, and efficacy to inform the selection of RP2D. Data from Phase 1 are reviewed to assess the benefit-risk for each dose level when selecting RP2D. The RP2D is determined as the dose resulting in the best therapeutic window for Compound 1 based on the review of all available safety, PK, PDc, and preliminary efficacy data. The RP2D can be the same as the MTD or below the MTD.
Compound 1 concentration data were summarized by dose level and Study Day using nominal time points. Individual and mean concentrations versus nominal time plots were presented by dose level. Pharmacokinetic parameter values were derived by non-compartmental methods by a validated pharmacokinetic analysis program. Actual times were used for all formal analyses. PK parameters were summarized by dose level. Individual values were listed for each PK parameter (e.g., Cmax, Tmax, AUC0-T, AUCtau, Ctrough/Ctau, accumulation ratios) by dose level, and the following (non-model-based) descriptive statistics were provided: N (number of patients with non-missing data), arithmetic mean, standard deviation, arithmetic percent coefficient of variation (CV) (calculated as 100×standard deviation/arithmetic mean), median, minimum, maximum, geometric mean, and geometric percent CV (calculated as: […]
Plasma samples were analyzed for levels of Compound 1 via a validated LC/MS/MS method. The concentration data were analyzed using Phoenix version 8.2 via noncompartmental analysis.

Entries after “also recorded” stand apart in the source; their conditions may differ. Read-outs that look alike come from different tables or passages of the source.

Take `CNC(=O)c1ccc(NCC#Cc2cc3c(N[C@@H]4CCN(C)C[C@@H]4F)cccc3n2CC(F)(F)F)c(OC)c1` [Compound 1, 4-((3-(4-(((3S,4R)-3-fluoro-1-methylpiperidin-4-yl)amino)-1-(2,2,2-trifluoroethyl)-1H-indol-2-yl)prop-2-yn-1-yl)amino)-3-methoxy-N-methylbenzamide]: the “total dose excreted in urine as unchanged Compound 1” value came out at 2.53% in series [1] (1000 mg, fasted, 96-hour interval); 3.29% in series [1] (1000 mg, fed, 96-hour interval); 2.28% in series [1] (2000 mg, Japanese, fasted, 96-hour interval). Moreover, the “total dose excreted in urine as Compound 1” value in series [1] (2000 mg, Caucasian/non-Asian, fasted, 96-hour interval) was 1.90%; in series [1] (2000 mg, Caucasian/non-Asian, fed, 96-hour interval), 3.66%. For the same molecule, in series [1] (96-hour interval, fasted and fed, all participants), the “dose excreted in urine as unchanged Compound 1” value is on record as “less than 4%”. Moreover, the CL renal in series [1] (1000 mg, fasted (Part 1)) was 2.87 mL/min; in series [1] (1000 mg, fed (Part 1)), 3.1 mL/min; in series [1] (2000 mg, Caucasian/non-Asian, fasted), 2.53 mL/min; in series [1] (2000 mg, Caucasian/non-Asian, fed), 2.73 mL/min; in series [1] (2000 mg, Japanese, fasted), 2.33 mL/min. In addition, in series [2], the “PSA response (decrease)” value is recorded as more than 50%. Also, the Exposures entry in series [3] (2,000 mg QD, 2,500 mg QD, and 1,500 mg BID dose groups) is on record as “Exposures were efficacious”. Besides, the half-life in series [3] (oral, patients, Day 15, read-out: Median half-life (converted)) was 19 h; in series [3] (patients, oral QD or BID dosing, read-out: Half-lives) it was 10 to 34 h. Besides, the “dose proportionality of exposure” value in series [3] (patients, Day 1 through D15) was “dose proportional increases in Cmax and AUC values; also recorded: linear PK over the therapeutic dose range”.
